US20260152487A1 (Sitryx Therapeutics Limited, priority 2021, published 2026)

How the values were obtained:
[1] = system: A549 cells; assay: A549 cell proliferation in low-serine medium (CellTiter-Glo 2.0 viable cell number); format: cell-based; details: Homo sapiens, 72 h, 3 days, Assay Medium with 20 μM L-serine
Procedure, shortened: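 A549 cells (600/well) were plated overnight and then exposed for 3 days at 37 °C to compound in Basal Medium Eagle with 3% dialysed FBS, 2 mM glutamine and 20 μM L-serine. Viable cell number was read by CellTiter-Glo luminescence and normalized to time-zero and DMSO controls. IC50 came from a 4-parameter logistic fit.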

[2] = target: T1, recombinant human PKLR (Homo sapiens, UniProt P30613); assay: Human PKLR activation assay (Kinase-Glo Plus luminescent detection of generated ATP); format: biochemical; details: for EC50: activation of recombinant human PKLR, 4-parameter logistic fit, read-out: hPKLR EC50; for Emax: percentage activation normalised to DMSO vehicle (LOW) and 5 μM TEPP-46 (HIGH) controls, read-out: hPKLR Emax (%)
T1 construct: His (N); purchased R&D Systems

[3] = target: T2, recombinant human PKM2 (Homo sapiens, UniProt P14618); assay: Human PKM2 activation assay (Kinase-Glo Plus luminescent detection of generated ATP); format: biochemical; details: for Emax: percentage activation normalised to DMSO vehicle (LOW) and 5 μM TEPP-46 (HIGH), read-out: hPKM2 Emax; for EC50: recombinant human PKM2 activation, 4-parameter logistic fit, read-out: hPKM2 EC50
T2 construct: His (N); purchased R&D Systems
Procedure, shortened: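 Luminescent ATP detection (Kinase-Glo Plus, 15 min, 26 °C) followed a 60 min, 26 °C shaken reaction of compound with […] His-tagged human PKM2, PEP and ADP in imidazole/KCl/MgCl2 buffer with Tween20 and BSA, pH 7.2.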

T2 sequence (P14618 2-531 limits assumed): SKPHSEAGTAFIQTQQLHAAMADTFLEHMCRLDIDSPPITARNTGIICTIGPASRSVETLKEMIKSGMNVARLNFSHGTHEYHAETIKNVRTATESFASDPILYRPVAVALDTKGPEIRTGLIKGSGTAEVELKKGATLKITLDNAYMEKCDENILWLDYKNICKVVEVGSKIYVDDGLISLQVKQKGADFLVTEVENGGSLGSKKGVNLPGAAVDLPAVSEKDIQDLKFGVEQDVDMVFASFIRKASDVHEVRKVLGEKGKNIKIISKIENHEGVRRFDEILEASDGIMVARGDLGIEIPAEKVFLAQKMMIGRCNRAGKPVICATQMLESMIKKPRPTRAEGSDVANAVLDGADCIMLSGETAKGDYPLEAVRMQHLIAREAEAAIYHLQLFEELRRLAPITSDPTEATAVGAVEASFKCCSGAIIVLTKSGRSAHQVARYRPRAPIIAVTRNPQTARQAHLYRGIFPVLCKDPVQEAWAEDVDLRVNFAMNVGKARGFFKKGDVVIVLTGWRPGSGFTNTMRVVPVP
T1 sequence (P30613 whole entry): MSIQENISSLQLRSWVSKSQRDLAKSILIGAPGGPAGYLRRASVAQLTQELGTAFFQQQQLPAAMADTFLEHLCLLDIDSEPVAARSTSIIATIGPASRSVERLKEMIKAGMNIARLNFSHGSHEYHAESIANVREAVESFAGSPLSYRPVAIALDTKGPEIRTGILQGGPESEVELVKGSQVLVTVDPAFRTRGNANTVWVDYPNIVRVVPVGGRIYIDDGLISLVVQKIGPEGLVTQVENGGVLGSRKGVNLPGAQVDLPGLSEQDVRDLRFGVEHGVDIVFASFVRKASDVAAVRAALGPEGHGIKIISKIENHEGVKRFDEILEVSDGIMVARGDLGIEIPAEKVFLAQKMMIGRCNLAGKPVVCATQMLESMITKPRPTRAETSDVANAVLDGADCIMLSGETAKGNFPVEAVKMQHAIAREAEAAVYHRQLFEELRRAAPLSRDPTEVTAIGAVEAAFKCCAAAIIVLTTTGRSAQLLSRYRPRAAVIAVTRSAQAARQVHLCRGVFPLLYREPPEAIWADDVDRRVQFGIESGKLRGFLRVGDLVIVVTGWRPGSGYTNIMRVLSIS

SMILES | IC50 [1] [nM] | EC50 [2] [nM] | Emax [2] [%] | Emax [3] [%] | EC50 [3] [nM]
COc1ccc(S(=O)(=O)c2ccc3c(=O)n(Cc4cccnc4O)ncc3c2)cc1 [Example 56, 2-((2-hydroxypyridin-3-yl)methyl)-6-((4-methoxyphenyl)sulfonyl)phthalazin-1(2H)-one] | 1.7 | 10.1 | 131 | 98 | 51.9
Cc1cc(Cn2ncc3cc(S(=O)(=O)c4ccccc4)ccc3c2=O)n[nH]1 [Example 96, 2-((5-methyl-1H-pyrazol-3-yl)methyl)-6-(phenylsulfonyl)phthalazin-1(2H)-one] | 3.3 | 9.3 | 128 | 116 | 62.6
Nc1cccc(Cn2ncc3cc(S(=O)(=O)c4ccccc4)ccc3c2=O)n1 [Example 38, 2-((6-aminopyridin-2-yl)methyl)-6-(phenylsulfonyl)phthalazin-1(2H)-one] | 1.5 | 5.3 | 149 | 115 | 40.1
Cc1cccc(Cn2ncc3cc(S(=O)(=O)c4ccccc4)ccc3c2=O)n1 [Example 75, 2-((6-methylpyridin-2-yl)methyl)-6-(phenylsulfonyl)phthalazin-1(2H)-one] | 2.2 | 11.5 | 137 | 108 | 47.7
Cn1ccc(Cn2ncc3cc(S(=O)(=O)c4ccccc4)ccc3c2=O)n1 [Example 60, 2-((1-methyl-1H-pyrazol-3-yl)methyl)-6-(phenylsulfonyl)phthalazin-1(2H)-one] | 3.6 | 34.1 | 122 | 110 | 100
COc1ccc(Cn2ncc3cc(S(=O)(=O)c4ccccc4)ccc3c2=O)cn1 [Example 41, 2-((6-methoxypyridin-3-yl)methyl)-6-(phenylsulfonyl)phthalazin-1(2H)-one] | 2 | 15.8 | 109 | 111 | 42.1
COc1ccc(S(=O)(=O)c2ccc3c(=O)n(CCc4ccccc4)ncc3c2)cc1 [Example 44, 6-((4-methoxyphenyl)sulfonyl)-2-phenethylphthalazin-1(2H)-one] | 41.8 | – | – | 63 | 367
COc1ccc(S(=O)(=O)c2ccc3c(=O)n(Cc4cccc(OC)c4F)ncc3c2)cc1 [Example 52, 2-(2-fluoro-3-methoxybenzyl)-6-((4-methoxyphenyl)sulfonyl)phthalazin-1(2H)-one] | 1.9 | – | – | 101 | 59.7
O=c1c2ccc(S(=O)(=O)c3ccccc3)cc2cnn1Cc1ccn(C2CC2)n1 [Example 73, 2-((1-cyclopropyl-1H-pyrazol-3-yl)methyl)-6-(phenylsulfonyl)phthalazin-1(2H)-one] | 3.5 | 14 | 117 | 99.9 | 30.2
COc1ccc(S(=O)(=O)c2ccc3c(=O)n(Cc4cccc5c4CCN5)ncc3c2)cc1 [Example 2, 2-(indolin-4-ylmethyl)-6-((4-methoxyphenyl)sulfonyl)phthalazin-1(2H)-one] | 0.8 | – | – | 97 | 66.4
O=c1c2ccc(S(=O)(=O)c3ccccc3)cc2cnn1Cc1cc[nH]n1 [Example 68, 2-((1H-pyrazol-3-yl)methyl)-6-(phenylsulfonyl)phthalazin-1(2H)-one] | 2.2 | 17.1 | 134 | 117 | 70.8
Cc1cn(C)nc1Cn1ncc2cc(S(=O)(=O)c3ccccc3)ccc2c1=O [Example 89, 2-((1,4-dimethyl-1H-pyrazol-3-yl)methyl)-6-(phenylsulfonyl)phthalazin-1(2H)-one] | 1.7 | 9.6 | 135 | 101 | 50.8
COc1ccc(S(=O)(=O)c2ccc3c(=O)n(Cc4ccn(CCO)n4)ncc3c2)cc1 [Example 24, 2-((1-(2-hydroxyethyl)-1H-pyrazol-3-yl)methyl)-6-((4-methoxyphenyl)sulfonyl)phthalazin-1(2H)-one] | 3 | – | – | 123 | 107
Cn1ncc2ccc(Cn3ncc4cc(S(=O)(=O)c5ccccc5)ccc4c3=O)cc21 [Example 39, 2-((1-methyl-1H-indazol-6-yl)methyl)-6-(phenylsulfonyl)phthalazin-1(2H)-one] | 7.4 | – | – | 71.9 | 150

More lines, in order of falling IC50 [1], values ahead:

IC50 [1] [nM] | EC50 [2] [nM] | Emax [2] [%] | Emax [3] [%] | EC50 [3] [nM] | SMILES
17.4 | – | – | 98.6 | 360 | O=c1c2ccc(S(=O)(=O)c3ccccc3)cc2cnn1Cc1cccnc1 [Example 65, 6-(phenylsulfonyl)-2-(pyridin-3-ylmethyl)phthalazin-1(2H)-one]
4.8 | – | – | 76 | 234 | COc1ccc(S(=O)(=O)c2ccc3c(=O)n(Cc4ccc(Cl)cc4F)ncc3c2)cc1 [Example 46, 2-(4-chloro-2-fluorobenzyl)-6-((4-methoxyphenyl)sulfonyl)phthalazin-1(2H)-one]
4.3 | – | – | 88.5 | 115 | NC(=O)c1ccccc1Cn1ncc2cc(S(=O)(=O)c3ccccc3)ccc2c1=O [Example 66, 2-((1-oxo-6-(phenylsulfonyl)phthalazin-2(1H)-yl)methyl)benzamide]
3 | 10.1 | 139 | 106 | 55.7 | Cc1cc(Cn2ncc3cc(S(=O)(=O)c4ccccc4)ccc3c2=O)nn1C [Example 90, 2-((1,5-dimethyl-1H-pyrazol-3-yl)methyl)-6-(phenylsulfonyl)phthalazin-1(2H)-one]
2.2 | 3.1 | 142 | 112 | 45.5 | COc1ccc(S(=O)(=O)c2ccc3c(=O)n(Cc4cc(C)[nH]n4)ncc3c2)cc1 [Example 54, 6-((4-methoxyphenyl)sulfonyl)-2-((5-methyl-1H-pyrazol-3-yl)methyl)phthalazin-1(2H)-one]
1.2 | 4.7 | 159 | 129 | 27.6 | COc1ccc(S(=O)(=O)c2ccc3c(=O)n(Cc4ccn(C5CC5)n4)ncc3c2)cc1 [Example 1, 2-((1-cyclopropyl-1H-pyrazol-3-yl)methyl)-6-((4-methoxyphenyl)sulfonyl)phthalazin-1(2H)-one]
